The term IC50 denotes the midpoint of a concentration-inhibition curve. Lower therefore signals higher potency. Broadly, the % inhibition is the change of the read-out against control, counted positive when it falls. Read a low % inhibition as a response near the control.

The results in this text go back to patent publication US11840686B2, “Modulation of prekallikrein (PKK) expression” (Ionis Pharmaceuticals, Inc., priority 2013, dated 2023).

In series [1] the test system is human PKK mRNA. Kind of series: Dose-dependent antisense inhibition of human PKK in HepaRG cells, 0.19-5.00 uM (Example 5). Type of series: cell-based. The essentials:
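HepaRG cells (20,000/well) were electroporated with antisense oligonucleotide at 0.19, 0.56, 1.67 and 5.00 μM and treated for about 16 hours. PKK mRNA was quantified by qRT-PCR with primer probe set RTS3454, normalised to RIBOGREEN total RNA, and IC50 was derived per oligonucleotide.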

Series [2] has as its system human PKK mRNA. Kind of series: Antisense inhibition of human PKK mRNA in HepaRG cells, 5,000 nM (Example 2). Type of series: cell-based. The essentials: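 Percent inhibition of PKK mRNA is reported relative to untreated cells, after adjustment for total RNA by RIBOGREEN. Gapmers of 16–20 nucleosides with 2′-MOE wings were delivered at 5,000 nM by electroporation into HepaRG cells and left for roughly 24 hours before RNA isolation.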

Setting [3] is: HepaRG cells, electroporation, approximately 16 hours, Table 41.
[4] abbreviates: 4 point dose response, HepaRG cells, Table 41.
Where [5] appears, read: Table 34, HepaRG, electroporation, ~16 h.
[6] abbreviates: Table 34, PKK mRNA, HepaRG, electroporation, ~16 h.
Where [7] appears, read: Table 13, human PKK mRNA in HepaRG cells, 5-10-5 gapmers.
The mark [8] stands for this setting: HepaRG cells, electroporation, approximately 16 hours, Table 38.
[9] abbreviates: HepaRG cells, electroporation, approximately 16 hours, Table 37.
Setting [10] is: 4 point dose response, HepaRG cells, Table 37.
Setting [11] is: Table 7, HepaRG cells, electroporation with 5,000 nM antisense oligonucleotide, approx. 24 hours, PKK mRNA by RT-PCR (RTS3454), relative to untreated control cells.
Where [12] appears, read: HepaRG cells, electroporation, approximately 16 hours, Table 36.
Where [13] appears, read: HepaRG cells, electroporation, approximately 16 hours, Table 40.

Strand notation (5' to 3'): a small letter for the sugar, then the base; units joined by * are phosphorothioate-linked, units joined directly phosphodiester-linked; [ ] holds rarer units or linkages, { } end groups; capitals alone tell only the bases. e = 2'-O-(2-methoxyethyl) (MOE); [5mC] = 5-methylcytosine; d = 2'-deoxy (DNA)

With “546825 (eG*eT*eA*eT*e[5mC]*dA*d[5mC]*dT*dG*dT*dA*d[5mC]*dT*dA*dG*eT*eT*eT*e[5mC]*e[5mC]; antisense) [compound 546825]”, in the series on human PKK mRNA [1] (setting [3]), the “percent inhibition of PKK at 5.00 μM” value turned out to be 99%, the “percent inhibition of PKK at 0.19 0μM” value was found to be 38% and the “percent inhibition of PKK at 0.56 0μM” value was found to be 82%. In addition, the midpoint of inhibition in the series with human PKK mRNA [1] (setting [4]), the IC50, lay at 200 nM. Besides, in the series on human PKK mRNA [1] (setting [5]), the “percent inhibition of PKK at 0.19 μM” value is 46%, the “percent inhibition of PKK at 0.56 μM” value is given as 73%, the “percent inhibition of PKK at 1.67 μM” value is listed as 86% and the “percent inhibition of PKK at 5.00 μM” value amounted to 88%. In the series on human PKK mRNA [1] (setting [6]), the IC50 was determined as 200 nM. Also, the “% inhibition” value in the series with human PKK mRNA [2] (setting [7]) came to 96%.

For the substance “546403 (e[5mC]*e[5mC]*eA*eT*eG*dA*dA*d[5mC]*dA*dT*d[5mC]*d[5mC]*dT*dA*dT*e[5mC]*e[5mC]*eG*eT*eG; antisense) [compound 546403]”, in the series on human PKK mRNA [1] (setting [8]), the “percent inhibition of PKK at 0.19 μM” value is 0%, the “percent inhibition of PKK at 0.56 μM” value is 20%, the “percent inhibition of PKK at 1.67 μM” value came out at 37% and the “percent inhibition of PKK at 5.00 μM” value came out at 41%. The IC50 in the series on human PKK mRNA [1] (4 point dose response, HepaRG cells, Table 38) was over 5000 nM. Moreover, the “% inhibition” value in the series on human PKK mRNA [2] (HepaRG cells, electroporation, 5,000 nM antisense oligonucleotide, approx. 24 hours, primer probe set RTS3454, relative to untreated control cells, Table 12) is 83%.

“546214 (antisense eG*eA*eG*eA*eA*d[5mC]*d[5mC]*d[5mC]*dT*dG*dG*d[5mC]*dA*dA*d[5mC]*eA*eT*e[5mC]*e[5mC]*eA) [compound 546214]”: in the series with human PKK mRNA [1] (setting [9]), the “percent inhibition of PKK at 0.19 μM” value stood at 0%, the “percent inhibition of PKK at 0.56 μM” value worked out at 0%, the “percent inhibition of PKK at 1.67 μM” value was determined as 68% and the “percent inhibition of PKK at 5.00 μM” value is 85%. Moreover, the IC50 with human PKK mRNA [1] (setting [10]) worked out at 1300 nM. In addition, the “% inhibition” value in the series with human PKK mRNA [2] (setting [11]) was 88%.

For the substance “546247 (e[5mC]*e[5mC]*eA*eA*eA*dG*dT*d[5mC]*dA*dA*d[5mC]*dT*d[5mC]*d[5mC]*d[5mC]*eG*eG*eG*eT*eA; antisense) [compound 546247]”, in the series on human PKK mRNA [1] (setting [12]), the “percent inhibition of PKK at 0.19 μM” value is listed as 0%, the “percent inhibition of PKK at 0.56 μM” value turned out to be 29%, the “percent inhibition of PKK at 1.67 μM” value is 71% and the “percent inhibition of PKK at 5.00 μM” value amounted to 88%. The substance further registered an IC50 in the series with human PKK mRNA [1] (4 point dose response, HepaRG cells, Table 36) of 1100 nM. For the same substance, the “% inhibition” value in the series on human PKK mRNA [2] (setting [11]) was found to be 90%.

For “546846 (e[5mC]*eT*eG*eT*e[5mC]*d[5mC]*dT*dA*dT*dA*dT*d[5mC]*dA*d[5mC]*dT*eG*eT*e[5mC]*e[5mC]*eT; antisense) [compound 546846]”, in the series with human PKK mRNA [1] (setting [3]), the “percent inhibition of PKK at 0.19 0μM” value came to 26% and the “percent inhibition of PKK at 0.56 0μM” value amounted to 49%. In the series on human PKK mRNA [1] (1.67 1μM, HepaRG cells, electroporation, approximately 16 hours, Table 41), the “percent inhibition of PKK at 1.67 1μM” value was 85%. Half-maximal inhibition with human PKK mRNA [1] (setting [4]) (IC50) required 500 nM. Besides, in the series on human PKK mRNA [1] (setting [5]), the “percent inhibition of PKK at 0.19 μM” value amounted to 36%, the “percent inhibition of PKK at 0.56 μM” value is on record as 45%, the “percent inhibition of PKK at 1.67 μM” value is 71% and the “percent inhibition of PKK at 5.00 μM” value worked out at 82%. This substance displayed an IC50 with human PKK mRNA [1] (setting [6]) of 500 nM. Moreover, the “% inhibition” value in the series with human PKK mRNA [2] (setting [7]) was determined as 95%.

Consider “547019 (eG*eA*eT*e[5mC]*eG*dG*dT*dG*dG*dT*dG*dG*dG*dA*dT*eT*eG*eG*eT*e[5mC]; antisense) [compound 547019]”, for which, in the series on human PKK mRNA [1] (setting [13]), the “percent inhibition of PKK at 0.19 μM” value was found to be 0%, the “percent inhibition of PKK at 0.56 μM” value was 6%, the “percent inhibition of PKK at 1.67 μM” value was 54% and the “percent inhibition of PKK at 5.00 μM” value came to 86%. Also, the IC50 in the series with human PKK mRNA [1] (4 point dose response, HepaRG cells, Table 40) came out at 1600 nM. The “% inhibition” value with human PKK mRNA [2] (HepaRG cells, 5,000 nM antisense oligonucleotide, 5-10-5 gapmers, Table 17) turned out to be 83%.

For “546877 (e[5mC]*eA*e[5mC]*eT*eG*dT*d[5mC]*d[5mC]*dT*dA*dT*dA*dT*d[5mC]*dA*e[5mC]*eT*eG*eT*eA; antisense) [compound 546877]”, in the series with human PKK mRNA [1] (setting [9]), the “percent inhibition of PKK at 0.19 μM” value is 0%, the “percent inhibition of PKK at 0.56 μM” value is reported as 19%, the “percent inhibition of PKK at 1.67 μM” value worked out at 75% and the “percent inhibition of PKK at 5.00 μM” value is reported as 80%. Further, the IC50 with human PKK mRNA [1] (setting [10]) was 1300 nM. For the same substance, the “% inhibition” value in the series on human PKK mRNA [2] (human PKK mRNA in HepaRG cells, 5-10-5 gapmers, Table 14) is 88%.
